Assay results: ChEMBL document CHEMBL6083252, “Synthesis and evaluation of novel tetrahydroisoquinoline-benzo[h]chromen-4-one conjugates as dual ABCB1/CYP1B1 inhibitors for overcoming MDR in cancer” (Bioorg Med Chem, 2024)
The source made the active and inactive calls. No cut-off for these calls is given here.

Assays:
SW620/AD300 [1] = assay: Reversal of multidrug resistance in human SW620/AD300 cells assessed as decrease in doxorubicin IC50 at 5 uM in presence of doxorubicin (reference value: 11.10 +/- 1.61 uM); format: functional, cell-based
SW620/AD300 [2] = assay: Reversal of multidrug resistance in human SW620/AD300 cells assessed as reversal fold by measuring ratio of doxorubicin IC50 to doxorubicin IC50 in presence of test compound at 5 uM; format: functional
SW-620 = assay: Cytotoxicity against human SW620 cells assessed as inhibition of cell growth at 5 uM incubated for 48 hrs by CCK8 assay; format: functional; set-up: scale not given: the % may be the effect or the level left
SW620/AD300 [3] = assay: Cytotoxicity against human SW620/AD300 cells assessed as inhibition of cell growth at 5 uM incubated for 48 hrs by CCK8 assay; format: functional; set-up: scale not given: the % may be the effect or the level left
SW620/AD300 [4] = assay: Cytotoxicity against human SW620/AD300 cells assessed as inhibition of cell growth incubated for 48 hrs by CCK8 assay; format: functional, cell-based; conditions: SW620/AD300, 48 h
[5] = Cytotoxicity against human DOX-SW620/AD300-1B1 cells assessed as inhibition of cell growth incubated for 48 hrs by CCK8 assay; format: functional, cell-based; conditions: DOX-SW620/AD300-1B1, 48 h
[6] = Reversal of docetaxel resistance in human DU-145 cells transfected with CYP1B1 assessed as decrease in docetaxel IC50 at 5 uM (reference value: 23.5 +/- 3.04 nM); format: functional, cell-based
DU-145 = assay: Cytotoxicity against human DU-145 cells assessed as inhibition of cell growth at 5 uM incubated for 48 hrs by CCK8 assay; format: functional, cell-based
[7] = test system: MKN45-DDP-R (Cisplatin-resistant MKN45 cells); assay: Reversal of cisplatin resistance in human MKN45-DDP-R cells expressing CYP1B1 at 5 uM in presence of cisplatin; format: functional, cell-based
Cytochrome P450 1B1 = target: T1, Cytochrome P450 1B1 (Homo sapiens, UniProt Q16678); assay: Inhibition of recombinant human CYP1B1 at 0.5 uM using 7-Ethoxyresorufin as substrate incubated for 35 mins in presence of NADPH by microplate reader assay; format: ADME; conditions: recombinant enzyme
T1 sequence (Q16678 whole entry): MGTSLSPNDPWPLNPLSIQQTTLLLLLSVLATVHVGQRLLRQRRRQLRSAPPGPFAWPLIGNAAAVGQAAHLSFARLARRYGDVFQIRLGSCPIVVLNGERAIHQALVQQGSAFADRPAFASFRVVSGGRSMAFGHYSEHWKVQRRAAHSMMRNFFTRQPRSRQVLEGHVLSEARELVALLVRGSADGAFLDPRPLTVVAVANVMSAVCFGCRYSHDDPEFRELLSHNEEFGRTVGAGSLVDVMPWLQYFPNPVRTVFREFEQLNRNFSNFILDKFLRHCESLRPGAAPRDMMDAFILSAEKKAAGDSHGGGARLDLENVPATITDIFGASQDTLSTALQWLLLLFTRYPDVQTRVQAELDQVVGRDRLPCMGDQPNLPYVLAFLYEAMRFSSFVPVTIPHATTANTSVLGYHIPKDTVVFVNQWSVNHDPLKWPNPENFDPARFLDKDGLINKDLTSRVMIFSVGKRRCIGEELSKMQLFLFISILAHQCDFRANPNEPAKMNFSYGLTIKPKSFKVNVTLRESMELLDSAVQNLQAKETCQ

[8] = Reversal of drug resistance in human DOX-SW620/AD300-1B1 cells assessed as decrease in doxorubicin IC50 at 5 uM after 48 hrs in presence of doxorubicin by CCK8 assay (reference value: 64.5 +/- 30 uM); format: functional, cell-based; conditions: DOX-SW620/AD300-1B1, 48 h
[9] = target: ATP-dependent translocase ABCB1 (Homo sapiens, UniProt P08183); assay: Inhibition of P-gp in human SW620/AD300 cells assessed as increase in intracellular Rh123 accumulation at 5 uM incubated for 4 hrs by flow cytometry analysis; format: cell-based; conditions: sw620/ad300, 4 h
SW620/AD300 [10] = assay: Downregulation of P-gp expression in human SW620/AD300 cells at 10 uM incubated for 24 hrs by immunofluorescence assay; format: functional, cell-based
SW620/AD300 [11] = assay: Downregulation of P-gp expression in human SW620/AD300 cells upto 30 uM incubated for 24 hrs by Western blotting assay; format: functional, cell-based
[12] = Cytotoxicity against human MKN45-DDP-R cells assessed as inhibition of cell growth incubated for 48 hrs by CCK8 assay; format: functional, cell-based; conditions: MKN45-DDP-R (Cisplatin-resistant MKN45 cells)
SW620/AD300 [13] = assay: Effect on P-gp protein expression in human SW620/AD300 cells at 5 uM incubated for 24 hrs by immunofluorescence assay; format: functional, cell-based
SW620/AD300 [14] = assay: Effect on P-gp protein expression in human SW620/AD300 cells at 5 to 30 uM by Western blotting assay; format: functional, cell-based; conditions: dose 5-30 µM
[15] = test system: MKN45-DDP-R (Cisplatin-resistant MKN45 cells); assay: Effect on lipid peroxidation level in human MKN45-DDP-R cells at 10 uM incubated for 24 hrs by BODIPY 581/591 C11 probe based flow cytometry assay; format: functional, cell-based
[16] = test system: MKN45-DDP-R (Cisplatin-resistant MKN45 cells); assay: Upregulation of PUMA expression level in human MKN45-DDP-R cells at 6 to 12 uM incubated for 48 hrs by Western blotting assay; format: functional, cell-based; conditions: dose 6-12 µM
[17] = Induction of apoptosis in human MKN45-DDP-R cells assessed as viable cells at 3 uM incubated for 48 hrs by Annexin V-FITC/PI staining based flow cytometry analysis (reference value: 94.7%); format: functional; conditions: MKN45-DDP-R (Cisplatin-resistant MKN45 cells), read-out: Activity
[18] = Induction of apoptosis in human MKN45-DDP-R cells assessed as early apoptotic cells at 3 uM incubated for 48 hrs by Annexin V-FITC/PI staining based flow cytometry analysis (reference value: 3.70%); format: functional, MKN45-DDP-R (Cisplatin-resistant MKN45 cells)
[19] = Induction of apoptosis in human MKN45-DDP-R cells assessed as late apoptotic cells at 3 uM incubated for 48 hrs by Annexin V-FITC/PI staining based flow cytometry analysis (reference value: 0.89%); format: functional, MKN45-DDP-R (Cisplatin-resistant MKN45 cells)
[20] = Induction of apoptosis in human MKN45-DDP-R cells assessed as necrotic cells at 3 uM incubated for 48 hrs by Annexin V-FITC/PI staining based flow cytometry analysis (reference value: 0.76%); format: functional, MKN45-DDP-R (Cisplatin-resistant MKN45 cells)
[21] = Induction of apoptosis in human MKN45-DDP-R cells assessed as viable cells at 6 uM incubated for 48 hrs by Annexin V-FITC/PI staining based flow cytometry analysis (reference value: 94.7%); format: functional; conditions: MKN45-DDP-R (Cisplatin-resistant MKN45 cells), read-out: Activity
[22] = Induction of apoptosis in human MKN45-DDP-R cells assessed as early apoptotic cells at 6 uM incubated for 48 hrs by Annexin V-FITC/PI staining based flow cytometry analysis (reference value: 3.70%); format: functional, MKN45-DDP-R (Cisplatin-resistant MKN45 cells)
[23] = Induction of apoptosis in human MKN45-DDP-R cells assessed as late apoptotic cells at 6 uM incubated for 48 hrs by Annexin V-FITC/PI staining based flow cytometry analysis (reference value: 0.89%); format: functional, MKN45-DDP-R (Cisplatin-resistant MKN45 cells)
[24] = Induction of apoptosis in human MKN45-DDP-R cells assessed as necrotic cells at 6 uM incubated for 48 hrs by Annexin V-FITC/PI staining based flow cytometry analysis (reference value: 0.76%); format: functional, MKN45-DDP-R (Cisplatin-resistant MKN45 cells)
[25] = test system: MKN45-DDP-R (Cisplatin-resistant MKN45 cells); assay: Inhibition of colony formation in human MKN45-DDP-R cells assessed as decrease in colony number incubated for 48 hrs followed by media replacement and cultured for 12 days by crystal violet staining based assay; format: functional, cell-based; conditions: dose 1-3 µM
[26] = test system: MKN45-DDP-R (Cisplatin-resistant MKN45 cells); assay: Inhibition of colony formation in human MKN45-DDP-R cells assessed as decrease in colony size incubated for 48 hrs followed by media replacement and cultured for 12 days by crystal violet staining based assay; format: functional, cell-based; conditions: dose 1-3 µM
[27] = test system: MKN45-DDP-R (Cisplatin-resistant MKN45 cells); assay: Inhibition of cell migration in human MKN45-DDP-R cells at over 1 uM incubated for 24 hrs by scratch wound healing based inverted microscopic analysis; format: functional

ATP-dependent translocase ABCB1, sequence (P08183 whole entry): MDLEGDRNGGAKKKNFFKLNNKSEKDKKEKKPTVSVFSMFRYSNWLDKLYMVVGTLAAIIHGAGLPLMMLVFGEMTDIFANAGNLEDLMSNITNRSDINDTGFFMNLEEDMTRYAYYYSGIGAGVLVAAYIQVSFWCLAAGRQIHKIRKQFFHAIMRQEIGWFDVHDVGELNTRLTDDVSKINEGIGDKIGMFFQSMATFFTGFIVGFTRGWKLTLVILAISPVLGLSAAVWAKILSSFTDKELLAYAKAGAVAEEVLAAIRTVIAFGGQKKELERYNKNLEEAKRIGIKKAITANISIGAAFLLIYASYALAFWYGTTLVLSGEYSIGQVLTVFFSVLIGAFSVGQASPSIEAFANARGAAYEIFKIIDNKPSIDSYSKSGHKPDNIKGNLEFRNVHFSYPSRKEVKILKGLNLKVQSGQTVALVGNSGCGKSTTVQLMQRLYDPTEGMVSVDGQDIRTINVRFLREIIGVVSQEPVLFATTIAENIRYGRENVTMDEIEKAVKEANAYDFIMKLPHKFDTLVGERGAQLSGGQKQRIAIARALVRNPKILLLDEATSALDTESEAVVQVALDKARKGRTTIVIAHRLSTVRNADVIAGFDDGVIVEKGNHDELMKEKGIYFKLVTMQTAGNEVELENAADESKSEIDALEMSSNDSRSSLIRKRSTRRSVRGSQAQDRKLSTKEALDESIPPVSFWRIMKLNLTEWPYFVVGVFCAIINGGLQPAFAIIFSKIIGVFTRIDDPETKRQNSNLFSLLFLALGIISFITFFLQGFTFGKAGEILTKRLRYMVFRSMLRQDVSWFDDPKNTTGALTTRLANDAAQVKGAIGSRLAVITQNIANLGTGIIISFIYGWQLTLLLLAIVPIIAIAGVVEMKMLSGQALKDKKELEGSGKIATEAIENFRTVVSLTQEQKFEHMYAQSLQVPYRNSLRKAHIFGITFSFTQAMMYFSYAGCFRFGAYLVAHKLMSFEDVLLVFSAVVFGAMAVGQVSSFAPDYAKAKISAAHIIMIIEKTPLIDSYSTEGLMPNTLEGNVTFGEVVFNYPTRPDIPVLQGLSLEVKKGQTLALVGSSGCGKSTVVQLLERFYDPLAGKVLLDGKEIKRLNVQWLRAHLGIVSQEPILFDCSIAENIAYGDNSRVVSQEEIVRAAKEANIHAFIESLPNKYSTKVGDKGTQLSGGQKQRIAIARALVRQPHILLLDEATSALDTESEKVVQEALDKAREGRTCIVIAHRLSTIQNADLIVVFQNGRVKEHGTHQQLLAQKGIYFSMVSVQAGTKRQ

Compound	IC50 (SW620/AD300 [1])	Ratio IC50 (SW620/AD300 [2])	Activity (SW-620)	Activity (SW620/AD300 [3])	IC50 [6]	Activity (DU-145)	also measured
COc1cc2c(cc1OC)CN(C(=O)c1cc(=O)c3ccc4ccccc4c3o1)CC2	6500 nM	1.7	8.82%	15.57%	–	–	–
COc1cccc2c1C(=O)c1c(O)c3c(c(O)c1C2=O)C[C@@](O)(C(=O)CO)C[C@@H]3O[C@H]1C[C@H](N)[C@H](O)[C@H](C)O1 [DOXORUBICIN]	–	–	0.29%	–	–	–	IC50 (SW620/AD300 [4]): 11100 nM; IC50 [5]: 64500 nM
COc1cc2c(cc1OC)CN(CCNC(=O)c1cc(=O)c3cc(OC)c4ccccc4c3o1)CC2	470 nM	23.6	28.94%	34.64%	–	–	–
COc1cc2c(cc1OC)CN(C(=O)C1CCN(C(=O)c3cc(=O)c4cc(OC)c5ccccc5c4o3)CC1)CC2	2200 nM	5	13.03%	4.05%	–	–	–
COc1cc2c(cc1OC)CN(CCN1CCN(C(=O)c3cc(=O)c4ccc5ccccc5c4o3)CC1)CC2	660 nM	16.8	11.06%	15.35%	–	–	–
COc1cc2c(cc1OC)CN(C(=O)Cn1cc(-c3ccc(-c4cc(=O)c5ccc6ccccc6c5o4)cc3)nn1)CC2	2290 nM	4.8	22.19%	26.85%	3.41 nM	Active; Lower Cytotoxicity Than Anf And Wk-X-37	Activity [7]: Active
O=c1cc(-c2ccccc2)oc2c1ccc1ccccc12 [ALPHA-NAPHTHOFLAVONE]	–	–	–	–	8.2 nM	Active; Lower Cytotoxicity Than Anf And Wk-X-39	inhibition (INH) (Cytochrome P450 1B1): Active; IC50 [8]: 2400 nM
COc1cc2c(cc1OC)CN(CCc1ccc(NC(=O)c3cc(=O)c4ccc5ccccc5c4o3)cc1)CC2	400 nM	27.8	13.57%	20.08%	–	–	–
COc1ccc(C(=O)Nc2ccccc2C(=O)Nc2ccc(CCN3CCc4cc(OC)c(OC)cc4C3)cc2)cc1OC	280 nM	39.6	8.91%	6.53%	8.7 nM	Active; Lower Cytotoxicity Than Anf And Wk-X-38	inhibition (INH) [9]: Active; inhibition (INH) (Cytochrome P450 1B1): Active; IC50 [8]: 40000 nM
COc1cc2c(cc1OC)CN(CCc1ccc(NC(=O)c3cc(=O)c4cc(OC)c5ccccc5c4o3)cc1)CC2	250 nM	44.4	32.77%	17.28%	5.69 nM	Active; Lower Cytotoxicity Than Anf And Wk-X-36	Activity (SW620/AD300 [10]): inactive; Activity (SW620/AD300 [11]): inactive; Activity [7]: Active; IC50 [8]: 4700 nM
COc1cc2c(cc1OC)CN(CCNC(=O)c1cc(=O)c3ccc4ccccc4c3o1)CC2	5250 nM	2.1	51.29%	55.04%	–	–	IC50 (SW620/AD300 [4]): 9100 nM; IC50 [12]: 6580 nM; Activity (SW620/AD300 [13]): inactive; Activity (SW620/AD300 [14]): inactive; Activity [15]: inactive; Activity [16]: Active; viability at 3 µM [17]: 81.1%; Activity [18]: 15%; Activity [19]: 3.37%; Activity [20]: 0.58%; viability at 6 µM [21]: 58%; Activity [22]: 34.9%; Activity [23]: 6.41%; Activity [24]: 0.73%; inhibition [25]: Dose-dependent-effect; inhibition [26]: Dose-dependent-effect; inhibition [27]: Active
COc1cc2c(cc1OC)CN(C(=O)C1CCN(C(=O)c3cc(=O)c4ccc5ccccc5c4o3)CC1)CC2	840 nM	13.2	26.93%	14.46%	–	–	–
COc1cc2c(cc1OC)CN(CCc1ccc(NC(=O)c3ccccc3NC(=O)c3cc(=O)c4ccc5ccccc5c4o3)cc1)CC2	320 nM	34.7	13.34%	7.13%	9.6 nM	Active; Lower Cytotoxicity Than Anf And Wk-X-34	Activity (SW620/AD300 [10]): inactive; Activity (SW620/AD300 [11]): inactive
COc1cc2c(cc1OC)CN(C(=O)c1cc(=O)c3cc(OC)c4ccccc4c3o1)CC2	7480 nM	1.4	4.62%	3.49%	11.4 nM	Active; Lower Cytotoxicity Than Anf And Wk-X-35	–
